Measured values: patent US20060229321A1, “Rosuvastatin in pre demented states” (priority 2001, published 2006)
Where a name gives a salt, the structure may show the parent alone.

Columns and labels:
[1] = treatment of hypercholesterolemia; Am J. Med. 2000:108:538-547; cited from earlier work
[2] = test system: cerebral ischemia caused by middle-cerebral artery occlusion (MCAO); experiment: Infarct volume after middle-cerebral artery occlusion (MCAO) in mice; format: in vivo; details: mouse, subcutaneous 2 or 20 mg/kg for 14 days before MCAO
From the text: (§1) The studies were generally carried out according to the methods set forth in M. Endres et al., Stroke protection by 3-hydroxy-3-methylglutaryl (HMG)-CoA reductase inhibitors mediated by endothelial nitric oxide synthase, Proc. Natl. Acad. Sci. USA, 95:8880-8885 (1998). In many cases dementia is known to result from the cumulative neurodegenerative effects of strokes. These can be major strokes or sub-clinical strokes, and result in a heterogeneous group of dementias commonly called vascular dementia (VAD). In this study rosuvastatin protected the brain in mice from cerebral ischemia A mechanism by which rosuvastatin may prevent dementia is by protecting the brain from cerebral ischemia.

eNOS = eNOS expression and activity in mice after subcutaneous rosuvastatin; format: in vivo; details: mouse, subcutaneous 2 or 20 mg/kg for 14 days
From the text: as §1

cholesterol = details: cited from earlier work

## CC[C@H](C)C(=O)O[C@H]1C[C@@H](C)C=C2C=C[C@H](C)[C@H](CC[C@@H]3C[C@@H](O)CC(=O)O3)[C@H]21 [Lovastatin]
[1]
  performance on neuropsychological tests of attention and psychomotor speed: small performance decrements

## CC(C)c1nc(N(C)S(C)(=O)=O)nc(-c2ccc(F)cc2)c1/C=C/[C@@H](O)C[C@@H](O)CC(=O)O [rosuvastatin, bis[(E)-7-[4-(4-fluorophenyl-6-isopropyl-2-[methyl(methylsulfonyl)amino]pyrimidin-5-yl]-(3R,5S)3,5-dihydroxyhept-6-enoic acid]calcium salt]
[2]
  volume of infarct resulting from subsequent cerebral ischemia (MCAO): reduced
eNOS
  activity of eNOS: increased
  expression of eNOS: increased
cholesterol
  reducing cholesterol in patients versus other HMG-CoA reductase inhibitors: superior
